Measured values as given in ChEMBL document CHEMBL1141064, “Discovery and structure-activity relationships of novel sulfonamides as potent PTP1B inhibitors” (Bioorg Med Chem Lett, 2005).

The compounds below were run against T1, Tyrosine-protein phosphatase non-receptor type 1 (Homo sapiens, UniProt P18031) (assay: Inhibitory activity against protein tyrosine phosphatase 1B using O-methyl fluorescein monophosphate).
T1 sequence (P18031 whole entry): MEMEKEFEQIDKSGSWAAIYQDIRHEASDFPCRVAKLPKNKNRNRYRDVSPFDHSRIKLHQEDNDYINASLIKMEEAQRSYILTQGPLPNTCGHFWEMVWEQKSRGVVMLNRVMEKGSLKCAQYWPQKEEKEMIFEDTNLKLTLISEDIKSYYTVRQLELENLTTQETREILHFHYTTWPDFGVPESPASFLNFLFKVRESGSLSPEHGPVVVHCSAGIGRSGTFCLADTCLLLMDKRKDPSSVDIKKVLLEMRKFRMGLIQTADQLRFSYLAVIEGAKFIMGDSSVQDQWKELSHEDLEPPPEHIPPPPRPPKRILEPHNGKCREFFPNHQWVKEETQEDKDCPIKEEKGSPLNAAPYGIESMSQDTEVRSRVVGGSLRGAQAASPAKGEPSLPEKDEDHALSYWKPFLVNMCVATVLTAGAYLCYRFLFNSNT

`Cc1cc(S(=O)(=O)N(Cc2ccccc2)Cc2ccc(C(F)(F)P(=O)(O)O)cc2)ccc1OCC(=O)O` and `O=C(O)COc1ccc(S(=O)(=O)N(Cc2ccccc2)Cc2ccc(C(F)(F)P(=O)(O)O)cc2)cc1Br` are the same in IC50: 4000 nM for the first, 4000 nM for the second.

`O=C(O)COc1ccc(S(=O)(=O)N(Cc2ccccc2)Cc2ccc(C(F)(F)P(=O)(O)O)cc2)cc1OC(F)(F)F` and `O=C(O)COc1ccc(S(=O)(=O)N(Cc2ccccc2)Cc2ccc(C(F)(F)P(=O)(O)O)cc2)cc1C(F)(F)F` are within 1.5-fold of each other in IC50: 5000 nM for the first, 4000 nM for the second.

Going from `O=P(O)(O)C(F)(F)c1ccc(CN(Cc2ccc(-c3csnn3)cc2)S(=O)(=O)c2ccccc2)cc1` to `O=C(O)COc1ccc(S(=O)(=O)N(Cc2ccc(-c3csnn3)cc2)Cc2ccc(C(F)(F)P(=O)(O)O)cc2)cc1`, the IC50 falls from 210 nM to 74 nM (2.8-fold).

`O=C(O)COc1ccc(S(=O)(=O)N(Cc2ccc(NC(=O)c3ccccc3)cc2)Cc2ccc(C(F)(F)P(=O)(O)O)cc2)cc1` and `O=C(O)COc1ccc(S(=O)(=O)N(Cc2ccccc2)Cc2ccc(C(F)(F)P(=O)(O)O)cc2)cc1` are within 1.5-fold of each other in IC50: 630 nM for the first, 600 nM for the second.

First: CS(=O)(=O)Nc1ccc(CN(Cc2ccc(C(F)(F)P(=O)(O)O)cc2)S(=O)(=O)c2ccc(OCC(=O)O)cc2)cc1
Second: CN(C)S(=O)(=O)c1ccc(CN(Cc2ccc(C(F)(F)P(=O)(O)O)cc2)S(=O)(=O)c2ccc(OCC(=O)O)cc2)cc1
The IC50 of the first is 6.1-fold lower: 180 nM for the first, 1100 nM for the second.

Going from `O=C(c1ccc(O)cc1)N(Cc1ccc(-c2csnn2)cc1)Cc1ccc(C(F)(F)P(=O)(O)O)cc1` to `O=C(O)COc1ccc(C(=O)N(Cc2ccc(-c3csnn3)cc2)Cc2ccc(C(F)(F)P(=O)(O)O)cc2)cc1`, the IC50 falls from 6900 nM to 2300 nM (3-fold).

`O=C(O)COc1ccc(S(=O)(=O)N(Cc2ccc(C(F)(F)P(=O)(O)O)cc2)Cc2cccs2)cc1` and `CC(=O)c1cccc(CN(Cc2ccc(C(F)(F)P(=O)(O)O)cc2)S(=O)(=O)c2ccc(OCC(=O)O)cc2)c1` are within 1.5-fold of each other in IC50: 1000 nM for the first, 770 nM for the second.

Compared with `O=C(O)COc1c(F)ccc(S(=O)(=O)N(Cc2ccccc2)Cc2ccc(C(F)(F)P(=O)(O)O)cc2)c1F`, `O=C(O)COc1c(F)cc(S(=O)(=O)N(Cc2ccccc2)Cc2ccc(C(F)(F)P(=O)(O)O)cc2)cc1F` is 1.6-fold lower in IC50: 1600 nM for the first, 1000 nM for the second. The second is the more potent here.

Compared with `COc1cc(CN(Cc2ccc(-c3csnn3)cc2)S(=O)(=O)c2ccc(OCC(=O)O)cc2)ccc1C(F)(F)P(=O)(O)O`, `O=C(O)COc1ccc(S(=O)(=O)N(Cc2ccc(-c3csnn3)cc2)Cc2ccc(C(F)(F)P(=O)(O)O)c(Br)c2)cc1` is 1.7-fold lower in IC50: 60 nM for the first, 35 nM for the second. The second is the more potent here.

`O=C(O)COc1ccc(S(=O)(=O)N(Cc2ccccc2)Cc2ccc(C(F)(F)P(=O)(O)O)cc2)cc1F` and `O=C(O)COc1ccc(S(=O)(=O)N(Cc2ccccc2)Cc2ccc(C(F)(F)P(=O)(O)O)cc2)cc1Cl` are the same in IC50: 3000 nM for the first, 3000 nM for the second.

First: Cc1cc(S(=O)(=O)N(Cc2ccccc2)Cc2ccc(C(F)(F)P(=O)(O)O)cc2)cc(C)c1OCC(=O)O
Second: O=C(O)c1cc(S(=O)(=O)N(Cc2ccccc2)Cc2ccc(C(F)(F)P(=O)(O)O)cc2)ccc1O
The IC50 of the first is 1.5-fold lower: 1900 nM for the first, 2900 nM for the second.

Compared with `CN(Cc1ccccc1)C(=O)CN(Cc1ccc(OCC(=O)O)cc1)Cc1ccc(C(F)(F)P(=O)(O)O)cc1`, `CN(Cc1ccccc1)C(=O)CN(Cc1ccc(C(F)(F)P(=O)(O)O)cc1)S(=O)(=O)c1ccc(OCC(=O)O)cc1` is 110-fold lower in IC50: 67500 nM for the first, 600 nM for the second. The second is the more potent here.

Compared with `O=C(O)COc1ccc(S(=O)(=O)N(Cc2ccc(C(F)(F)P(=O)(O)O)cc2)c2ccc(-c3csnn3)cc2)cc1`, `CC(=O)NCCN(Cc1ccc(C(F)(F)P(=O)(O)O)cc1)S(=O)(=O)c1ccc(OCC(=O)O)cc1` is 41-fold higher in IC50: 220 nM for the first, 9000 nM for the second. The first is the more potent here.

Going from `O=C(c1ccc(CN(Cc2ccccc2)S(=O)(=O)c2ccccc2[N+](=O)[O-])cc1)C(F)(F)P(=O)(O)O` to `O=[N+]([O-])c1ccccc1S(=O)(=O)N(Cc1ccccc1)Cc1ccc(C(F)(F)P(=O)(O)O)cc1`, the IC50 falls from 12000 nM to 7000 nM (1.7-fold).

`CN(Cc1ccccc1)C(=O)CN(Cc1ccc(C(F)(F)P(=O)(O)O)c(Br)c1)S(=O)(=O)c1ccc(OCC(=O)O)cc1` and `CN(C)S(=O)(=O)c1ccc(CN(Cc2ccc(C(F)(F)P(=O)(O)O)c(Br)c2)S(=O)(=O)c2ccc(OCC(=O)O)cc2)cc1` are within 1.5-fold of each other in IC50: 31 nM for the first, 28 nM for the second.

Compared with `COc1cc(CN(Cc2ccc(S(=O)(=O)N(C)C)cc2)S(=O)(=O)c2ccc(OCC(=O)O)cc2)ccc1C(F)(F)P(=O)(O)O`, `O=C(O)COc1ccc(S(=O)(=O)N(CC(=O)N2CCCCC2)Cc2ccc(C(F)(F)P(=O)(O)O)cc2)cc1` is 6.2-fold higher in IC50: 1100 nM for the first, 6800 nM for the second.

First: O=P(O)(O)C(F)(F)c1ccc(CN(Cc2ccccc2)S(=O)(=O)c2ccccc2)cc1
Second: O=P(O)(O)C(F)(F)c1ccc(CNCc2ccc(-c3csnn3)cc2)cc1
The IC50 of the first is 3.3-fold lower: 4200 nM for the first, 13700 nM for the second. The first is the more potent here.

Going from `O=P(O)(O)C(F)(F)c1ccc(CN(Cc2ccc(-c3csnn3)cc2)S(=O)(=O)c2ccccc2)cc1` to `O=C(O)COc1ccc(S(=O)(=O)N(Cc2ccc(-c3csnn3)cc2)Cc2ccc(C(F)(F)P(=O)(O)O)cc2)cc1`, the Ki falls from 98 nM to 56 nM (1.8-fold).

Going from `CN(Cc1ccccc1)C(=O)CN(Cc1ccc(C(F)(F)P(=O)(O)O)c(Br)c1)S(=O)(=O)c1ccc(OCC(=O)O)cc1` to `CN(Cc1ccccc1)C(=O)CN(Cc1ccc(C(F)(F)P(=O)(O)O)cc1)S(=O)(=O)c1ccc(OCC(=O)O)cc1`, the Ki rises from 14 nM to 590 nM (42-fold).

First: O=C(O)COc1ccc(S(=O)(=O)N(Cc2ccc(-c3csnn3)cc2)Cc2ccc(C(F)(F)P(=O)(O)O)c(Br)c2)cc1
Second: CN(C)S(=O)(=O)c1ccc(CN(Cc2ccc(C(F)(F)P(=O)(O)O)c(Br)c2)S(=O)(=O)c2ccc(OCC(=O)O)cc2)cc1
The Ki of the first is 4.1-fold higher: 53 nM for the first, 13 nM for the second.
